Here are results for 24 compounds from US8461328B2, “Tricyclic heterocyclic compounds, compositions and methods of use thereof” (Genentech, Inc., priority 2010, dated 2013).

What all share (format): biochemical
One assay addresses T1, JAK1 (Homo sapiens, UniProt P23458).
T1 construct: made in house; host or cells: SF9 insect cells (baculovirus)
In words: JAK1 inhibition (Table 4). The conditions noted are these: read-out: JAK1 Ki.

The next assay has as its target T2, JAK2 (Homo sapiens, UniProt O60674).
T2 construct: made in house; host or cells: SF9 insect cells (baculovirus)
In words: JAK2 inhibition (Table 4). To be noted: read-out: JAK2 Ki.

A further assay deals with T3, JAK3 (Homo sapiens, UniProt P52333).
T3 construct: made in house; host or cells: SF9 insect cells (baculovirus)
Briefly: JAK3 inhibition (Table 4). To be noted: read-out: JAK3 Ki.

Another assay deals with T4, TYK2 (Homo sapiens, UniProt P29597).
T4 construct: made in house; host or cells: SF9 insect cells (baculovirus)
T4 sequence (P29597 873-1187): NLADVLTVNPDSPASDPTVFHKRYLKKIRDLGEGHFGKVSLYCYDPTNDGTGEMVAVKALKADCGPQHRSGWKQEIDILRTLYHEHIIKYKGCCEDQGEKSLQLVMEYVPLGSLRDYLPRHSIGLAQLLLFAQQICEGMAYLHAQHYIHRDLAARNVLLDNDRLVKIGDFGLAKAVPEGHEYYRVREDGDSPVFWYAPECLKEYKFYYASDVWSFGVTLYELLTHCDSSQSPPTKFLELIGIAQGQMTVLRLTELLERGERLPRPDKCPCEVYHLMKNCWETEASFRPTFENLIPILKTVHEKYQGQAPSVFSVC
In words: TYK2 inhibition (Table 4).

T3 sequence (P52333 783-1124): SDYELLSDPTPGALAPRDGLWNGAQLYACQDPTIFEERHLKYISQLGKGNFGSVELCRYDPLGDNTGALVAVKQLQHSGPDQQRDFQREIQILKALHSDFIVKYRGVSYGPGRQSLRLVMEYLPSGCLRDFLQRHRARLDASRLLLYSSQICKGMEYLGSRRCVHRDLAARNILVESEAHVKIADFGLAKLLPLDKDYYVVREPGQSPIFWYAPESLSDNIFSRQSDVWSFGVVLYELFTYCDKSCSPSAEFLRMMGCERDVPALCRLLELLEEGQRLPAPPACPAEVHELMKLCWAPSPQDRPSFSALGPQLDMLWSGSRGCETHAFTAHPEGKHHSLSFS
T1 sequence (P23458 852-1154): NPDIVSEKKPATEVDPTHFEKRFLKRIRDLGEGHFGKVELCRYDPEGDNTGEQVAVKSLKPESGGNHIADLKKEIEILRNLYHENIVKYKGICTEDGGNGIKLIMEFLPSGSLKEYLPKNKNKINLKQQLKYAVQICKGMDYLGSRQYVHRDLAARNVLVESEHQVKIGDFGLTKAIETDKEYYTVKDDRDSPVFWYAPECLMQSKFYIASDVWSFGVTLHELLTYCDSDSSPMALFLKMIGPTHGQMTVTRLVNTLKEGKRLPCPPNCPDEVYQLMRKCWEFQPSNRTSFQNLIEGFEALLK
T2 sequence (O60674 812-1132): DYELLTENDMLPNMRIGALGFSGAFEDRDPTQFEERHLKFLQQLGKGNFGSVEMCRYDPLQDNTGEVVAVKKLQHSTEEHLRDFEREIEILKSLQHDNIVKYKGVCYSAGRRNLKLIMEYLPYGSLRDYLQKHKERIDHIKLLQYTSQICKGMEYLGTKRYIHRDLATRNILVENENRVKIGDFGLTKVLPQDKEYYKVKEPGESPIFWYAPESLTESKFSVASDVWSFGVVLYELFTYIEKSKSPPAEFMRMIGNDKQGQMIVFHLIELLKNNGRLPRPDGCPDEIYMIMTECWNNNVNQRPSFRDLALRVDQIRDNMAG

For the compound `CCN1CC[C@@H](n2cnc3cnc4[nH]ccc4c32)[C@@H](F)C1` [Example 523, 1-((3S,4R)-1-Ethyl-3-fluoro-piperidin-4-yl)-1,6-dihydro-1,3,5,6-tetraaza-as-indacene], the Ki on JAK1 came out at 11.2 nM; at JAK2, 16.7 nM; at JAK3, 302 nM; on TYK2, 85.6 nM.
As for `O=C(Cc1nc2cnc3[nH]ccc3c2n1C1CCCOC1)N1CCCC(O)C1` (racemic) [Example 982, 1-(3-Hydroxy-piperidin-1-yl)-2-[1-(tetrahydro-pyran-3-yl)-1,6-dihydro-1,3,5,6-tetraaza-as-indacen-2-yl]-ethanone], the inhibition constant Ki on JAK1 came out at 34.3 nM; at JAK2 it was 307 nM; on JAK3 it was 159 nM; on TYK2, 273 nM.
As to `CC(=O)NCCc1nc2cnc3[nH]ccc3c2n1C1CCN(CCC#N)CC1` [Example 379, N-(2-{1-[1-(2-Cyano-ethyl)-piperidin-4-yl]-1,6-dihydro-1,3,5,6-tetraaza-as-indacen-2-yl}-ethyl)-acetamide], the Ki on JAK1 was determined as 3.54 nM; on JAK2, 18 nM; at JAK3 it was 26.2 nM; on TYK2, 117 nM.
As for `OCc1nc2cnc3[nH]ccc3c2n1C1CCCCC1` [Example 675, (1-Cyclohexyl-1,6-dihydro-1,2,3,5,6-tetraaza-as-indacen-2-yl)-methanol], the Ki came out at 1.21 nM on JAK1, 6.96 nM on JAK2, 11.4 nM on JAK3 and 1.78 nM at TYK2.
Taken in the same sequence, the figures for `Cc1nc2cnc3[nH]ccc3c2n1C1(C)CCN(Cc2ccnc(C#N)c2)CC1` [Example 758, 4-[4-Methyl-4-(2-methyl-6H-1,3,5,6-tetraaza-as-indacen-1-yl)-piperidin-1-ylmethyl]-pyridine-2-carbonitrile] were 40.8 nM, 205 nM, 598 nM and 1010 nM.
The like results for `N#Cc1cccc(N2CCC(n3cnc4cnc5[nH]ccc5c43)CC2)n1` [Example 94, 4-(6H-1,3,5,6-Tetraaza-as-indacen-1-yl)-3,4,5,6-tetrahydro-2H-[1,2′]bipyridinyl-6′-carbonitrile] were, in that order, 0.73 nM, 2.82 nM, 7.69 nM and 21 nM.
In the case of `CCCc1nc2cnc3[nH]ccc3c2n1C1CCN(CCC#N)CC1` [Example 120, 3-[4-(2-Propyl-6H-1,2,3,5,6-tetraaza-as-indacen-1-yl)-piperidin-1-yl]-propionitrile], the Ki on JAK1 is 5.56 nM; on JAK2 it was 10.3 nM; on JAK3, 11.2 nM; on TYK2, 82.1 nM.
As to `N#CC1(C(=O)N2CCC[C@@H](n3cnc4cnc5[nH]ccc5c43)C2)CC1` [Example 221, 1-[(R)-3-(6H-1,3,5,6-Tetraaza-as-indacen-1-yl)-piperidine-1-carbonyl]-cyclopropanecarbonitrile], the Ki is 2.52 nM at JAK1, 3.92 nM at JAK2, 8.12 nM on JAK3 and 9.37 nM on TYK2.
Take `N#CCCN1CCC(n2c(CCNS(=O)(=O)C3CC3)nc3cnc4[nH]ccc4c32)CC1` [Example 370, Cyclopropanesulfonic acid (2-{1-[1-(2-cyano-ethyl)-piperidin-4-yl]-1,6-dihydro-1,3,5,6-tetraaza-as-indacen-2-yl}-ethyl)-amide]: the Ki stood at 2.95 nM at JAK1, 16.7 nM at JAK2, 27.8 nM on JAK3 and 77.9 nM at TYK2.
For `O=C(C1CC1F)N1CCC[C@@H](n2cnc3cnc4[nH]ccc4c32)C1` (mixture of isomers) [Example 235, (2-Fluoro-cyclopropyl)-[(R)-3-(6H-1,3,5,6-tetraaza-as-indacen-1-yl)-piperidin-1-yl]-methanone], the Ki on JAK1 turned out to be 4.37 nM; at JAK2, 6.56 nM; on JAK3, 42.6 nM; at TYK2, 17.9 nM.
The like results for `O[C@H]1CC[C@@H](n2cnc3cnc4[nH]ccc4c32)C1` [Example 709, (1S,3R)-3-(6H-1,2,3,5,6-Tetraaza-as-indacen-1-yl)-cyclopentanol] were, in that order, 6.03 nM, 24 nM, 56.3 nM and 44.4 nM.
Regarding `O=C1CCCN1CCc1nc2cnc3[nH]ccc3c2n1C1CCCCC1` [Example 801, 1-[2-(1-Cyclohexyl-1,6-dihydro-1,3,5,6-tetraaza-as-indacen-2-yl)-ethyl]-pyrrolidin-2-one], the Ki at JAK1 worked out at 7.74 nM; on JAK2, 51.5 nM; on JAK3, 76.8 nM; on TYK2 it was 64.9 nM.
For the compound `C[C@@H](O)c1nc2cnc3[nH]ccc3c2n1[C@H]1CC[C@H](NCCC#N)CC1` [Example 615, Trans 3-{4-[2-((R)-1-hydroxy-ethyl)-6H-1,2,3,5,6-tetraaza-as-indacen-1-yl]-cyclohexylamino}-propionitrile], the Ki on JAK1 amounted to 1.96 nM; at JAK2, 57.5 nM; on JAK3, 137 nM; on TYK2 it was 21.5 nM.
For the compound `COCCNc1nc2cnc3[nH]ccc3c2n1C1CCN(CCC#N)CC1` [Example 770, 3-{4-[2-(2-Methoxy-ethylamino)-6H-1,3,5,6-tetraaza-as-indacen-1-yl]-piperidin-1-yl}-propionitrile], the Ki on JAK1 was 8.8 nM; at JAK2 it was 32.7 nM; on JAK3, 42.7 nM; on TYK2, 207 nM.
Taken in the same sequence, the figures for `C[C@@H](O)c1nc2cnc3[nH]ccc3c2n1[C@@H]1CCC[C@@H](O)C1` [Example 689, (1R,3R)-3-[2-((R)-1-Hydroxy-ethyl)-6H-1,2,3,5,6-tetraaza-as-indacen-1-yl]-cyclohexanol] were 2.73 nM, 52.4 nM, 57 nM and 5.59 nM.
Turning to “3-[6-benzenesulfonyl-2-((R)-1-hydroxy-ethyl]-6H-1,3,5,6-tetraaza-as-indecen-1-yl}-cyclohexanecarbonitrile [Example 742]”, the Ki on JAK1 turned out to be 9.51 nM; at JAK2 it was 66.2 nM; on JAK3, 36.6 nM; at TYK2 it was 11.1 nM.
The like results for `c1ccc(CCN2CCC[C@@H](n3cnc4cnc5[nH]ccc5c43)C2)cc1` [Example 234, 1-((R)-1-Phenthyl-piperidin-3-yl)-1,6-dihydro-1,3,5,6-tetraaza-as-indacene] were, in that order, 63.3 nM, 179 nM, 132 nM and 1760 nM.
For the compound `CS(=O)(=O)Cc1nc2cnc3[nH]ccc3c2n1C1CCN(CCC#N)CC1` [Example 491, 3-[4-(2-Methanesulfonylmethyl-6H-1,3,5,6-tetraaza-as-indacen-1-yl)-piperidin-1-yl]-propionitrile], the Ki at JAK1 worked out at 9.7 nM; on JAK2 it was 34 nM; at JAK3, 23.6 nM; on TYK2, 95.8 nM.
Taken in the same sequence, the figures for `CC1CN(Cc2ccccc2)CCC1n1cnc2cnc3[nH]ccc3c21` (racemic) [Example 149, Racemic cis 1-(1-Benzyl-3-methyl-piperidin-4-yl)-1,6-dihydro-1,2,3,5,6-tetraaza-as-indacene] were 0.98 nM, 1.61 nM, 20.3 nM and 18.4 nM.
For the compound `COC1CNCCC1n1c(C)nc2cnc3[nH]ccc3c21` (racemic) [Example 535, 1-(3-Methoxy-piperidin-4-yl)-2-methyl-1,6-dihydro-1,3,5,6-tetraaza-as-indacene], the Ki on JAK1 was 12 nM; at JAK2 it was 44.9 nM; on JAK3 it was 225 nM; at TYK2, 88.2 nM.
For the compound `FC(F)(F)CNC1CCC(n2cnc3cnc4[nH]ccc4c32)C1` (racemic) [Example 717, [3-(6H-1,3,5,6-tetraaza-as-indacen-1-yl)-cyclopentyl]-(2,2,2-trifluoro-ethyl)-amine], the Ki at JAK1 was 6.11 nM; at JAK2, 13.3 nM; on JAK3, 59.7 nM; at TYK2 it was 35 nM.
The like results for `CCN1CCC(n2c(CO)nc3cnc4[nH]ccc4c32)C(F)(F)C1` (racemic) [Example 941, [1-(1-Ethyl-3,3-difluoro-piperidin-4-yl)-1,6-dihydro-1,3,5,6-tetraaza-as-indacen-2-yl]-methanol] were, in that order, 1.8 nM, 10.6 nM, 5.97 nM and 14.7 nM.
In the case of `COCC(=O)N1CCC(n2c(Cc3conc3C)nc3cnc4[nH]ccc4c32)CC1` [Example 119, 2-Methoxy-1-{4-[2-(3-methyl-isoxazol-4-ylmethyl)-6H-1,2,3,5,6-tetraaza-as-indacen-1-yl]-piperidin-1-yl}-ethanone], the Ki at JAK1 was found to be 77.7 nM; on JAK2, 1310 nM; at JAK3, 1160 nM; on TYK2, 1030 nM.
The like results for `CCN1CC[C@@H](n2c(CCNC(C)=O)nc3cnc4[nH]ccc4c32)[C@@H](F)C1` [Example 811, N-{2-[1-((3S,4R)-1-Ethyl-3-fluoro-piperidin-4-yl)-1,6-dihydro-1,3,5,6-tetraaza-as-indacen-2-yl]-ethyl}-acetamide] were, in that order, 6.78 nM, 62.9 nM, 130 nM and 519 nM.

One may read the Ki as the equilibrium dissociation constant of an inhibitor or competing ligand from its target.
